From PubChem BioAssay AID2060513 (Molecular Pharmacology Branch, DTP, NCI, 2025)
pIC50: −log10 of the molar value. Values belong to the compound of their own block, whether it stands above or below them.

Tested on: 299254-011-R-J1-PDC complex spheroids viability
Assay: Anticancer human tumor 299254-011-R-J1-PDC patient-derived melanoma cell line growth inhibition [GQUAD]
Conditions: for pIC50: curve of first compound; for viability, T/C: stronger effect = lower value
In short: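 Viability of tumor cells grown as complex spheroids with endothelial and stromal cells, exposed to drug combinations. Top concentration at or near clinical Cmax (else 10 microM), diluted in half-log increments.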

[1] = second compound 0.0316 µM, first compound 0.0316 µM
[2] = second compound 0.0316 µM, first compound 0.1 µM
[3] = second compound 0.0316 µM, first compound 0.316 µM
[4] = second compound 0.0316 µM, first compound 1 µM
[5] = second compound 0.0316 µM, first compound 3.16 µM
[6] = second compound 0.0316 µM, first compound 10 µM
[7] = second compound 0.1 µM, first compound 0.0316 µM
[8] = second compound 0.1 µM, first compound 0.1 µM
[9] = second compound 0.1 µM, first compound 0.316 µM
[10] = second compound 0.1 µM, first compound 1 µM
[11] = second compound 0.1 µM, first compound 3.16 µM
[12] = second compound 0.1 µM, first compound 10 µM
[13] = second compound 0.316 µM, first compound 0.0316 µM
[14] = second compound 0.316 µM, first compound 0.1 µM
[15] = second compound 0.316 µM, first compound 0.316 µM
[16] = second compound 0.316 µM, first compound 1 µM
[17] = second compound 0.316 µM, first compound 3.16 µM
[18] = second compound 0.316 µM, first compound 10 µM
[19] = second compound 1 µM, first compound 0.0316 µM
[20] = second compound 1 µM, first compound 0.1 µM
[21] = second compound 1 µM, first compound 0.316 µM
[22] = second compound 1 µM, first compound 1 µM
[23] = second compound 1 µM, first compound 3.16 µM
[24] = second compound 1 µM, first compound 10 µM
[25] = second compound 3.16 µM, first compound 0.0316 µM
[26] = second compound 3.16 µM, first compound 0.1 µM
[27] = second compound 3.16 µM, first compound 0.316 µM
[28] = second compound 3.16 µM, first compound 1 µM
[29] = second compound 3.16 µM, first compound 3.16 µM
[30] = second compound 3.16 µM, first compound 10 µM
[31] = second compound 10 µM, first compound 0.0316 µM
[32] = second compound 10 µM, first compound 0.1 µM
[33] = second compound 10 µM, first compound 0.316 µM
[34] = second compound 10 µM, first compound 1 µM
[35] = second compound 10 µM, first compound 3.16 µM
[36] = second compound 10 µM, first compound 10 µM
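Note: spheroids exposed to the agents for seven days before readout.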
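Throughout, for viability, T/C: percent viability relative to DMSO vehicle control wells = 100%.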

Compound: Nc1ccn(C2OC(CO)C(O)C2(F)F)c(=O)n1 (stereo unspecified) + CN(C)c1ccc(Nc2c3ccc(NC(=O)CCN4CCCC4)cc3nc3cc(NC(=O)CCN4CCCC4)ccc23)cc1
pIC50 (second compound 0.0316 µM): < 5.00
pIC50 (second compound 0.1 µM): < 5.00
pIC50 (second compound 0.316 µM): 5.50
pIC50 (second compound 1 µM): < 5.00
pIC50 (second compound 3.16 µM): < 5.00
pIC50 (second compound 10 µM): < 5.00
viability, T/C [1]: 84%
viability, T/C [2]: 73.5%
viability, T/C [3]: 66.9%
viability, T/C [4]: 60.4%
viability, T/C [5]: 54.7%
viability, T/C [6]: 59.3%
viability, T/C [7]: 80.3%
viability, T/C [8]: 94.6%
viability, T/C [9]: 67.1%
viability, T/C [10]: 56.6%
viability, T/C [11]: 58.1%
viability, T/C [12]: 59.7%
viability, T/C [13]: 85.2%
viability, T/C [14]: 117%
viability, T/C [15]: 51.7%
viability, T/C [16]: 59.6%
viability, T/C [17]: 68.3%
viability, T/C [18]: 56.7%
viability, T/C [19]: 93.5%
viability, T/C [20]: 81.2%
viability, T/C [21]: 68.7%
viability, T/C [22]: 57.8%
viability, T/C [23]: 63%
viability, T/C [24]: 72.9%
viability, T/C [25]: 94.1%
viability, T/C [26]: 98.1%
viability, T/C [27]: 71.3%
viability, T/C [28]: 59.7%
viability, T/C [29]: 55.6%
viability, T/C [30]: 59%
viability, T/C [31]: 105%
viability, T/C [32]: 80.1%
viability, T/C [33]: 65.6%
viability, T/C [34]: 64.3%
viability, T/C [35]: 66.6%
viability, T/C [36]: 61.6%

Compound: Cc1[nH]c2ccccc2c1CCNCc1ccc(/C=C/C(=O)NO)cc1 + CN(C)c1ccc(Nc2c3ccc(NC(=O)CCN4CCCC4)cc3nc3cc(NC(=O)CCN4CCCC4)ccc23)cc1
pIC50 (second compound 0.0316 µM): 6.79
pIC50 (second compound 0.1 µM): 6.86
pIC50 (second compound 0.316 µM): 6.77
pIC50 (second compound 1 µM): 6.73
pIC50 (second compound 3.16 µM): 6.82
pIC50 (second compound 10 µM): 6.87
viability, T/C (second compound 0.0316 µM, first compound 0.000999 µM): 96.8%
viability, T/C (second compound 0.0316 µM, first compound 0.00316 µM): 81.8%
viability, T/C (second compound 0.0316 µM, first compound 0.00999 µM): 89.2%
viability, T/C [1]: 82.9%
viability, T/C (second compound 0.0316 µM, first compound 0.0999 µM): 74.8%
viability, T/C [3]: 16.3%
viability, T/C (second compound 0.1 µM, first compound 0.000999 µM): 86%
viability, T/C (second compound 0.1 µM, first compound 0.00316 µM): 102%
viability, T/C (second compound 0.1 µM, first compound 0.00999 µM): 86.8%
viability, T/C [7]: 90.3%
viability, T/C (second compound 0.1 µM, first compound 0.0999 µM): 63.7%
viability, T/C [9]: 15%
viability, T/C (second compound 0.316 µM, first compound 0.000999 µM): 95.3%
viability, T/C (second compound 0.316 µM, first compound 0.00316 µM): 88.5%
viability, T/C (second compound 0.316 µM, first compound 0.00999 µM): 87%
viability, T/C [13]: 97.3%
viability, T/C (second compound 0.316 µM, first compound 0.0999 µM): 77%
viability, T/C [15]: 19.3%
viability, T/C (second compound 1 µM, first compound 0.000999 µM): 101%
viability, T/C (second compound 1 µM, first compound 0.00316 µM): 110%
viability, T/C (second compound 1 µM, first compound 0.00999 µM): 73.4%
viability, T/C [19]: 92.4%
viability, T/C (second compound 1 µM, first compound 0.0999 µM): 87.8%
viability, T/C [21]: 18.7%
viability, T/C (second compound 3.16 µM, first compound 0.000999 µM): 111%
viability, T/C (second compound 3.16 µM, first compound 0.00316 µM): 110%
viability, T/C (second compound 3.16 µM, first compound 0.00999 µM): 86.6%
viability, T/C [25]: 107%
viability, T/C (second compound 3.16 µM, first compound 0.0999 µM): 68.9%
viability, T/C [27]: 16.2%
viability, T/C (second compound 10 µM, first compound 0.000999 µM): 103%
viability, T/C (second compound 10 µM, first compound 0.00316 µM): 121%
viability, T/C (second compound 10 µM, first compound 0.00999 µM): 98.8%
viability, T/C [31]: 95.7%
viability, T/C (second compound 10 µM, first compound 0.0999 µM): 61.7%
viability, T/C [33]: 14.7%

pIC50 (second compound 0.0316 µM): < 5.00
pIC50 (second compound 0.1 µM): < 5.00
pIC50 (second compound 0.316 µM): < 5.00
pIC50 (second compound 1 µM): < 5.00
pIC50 (second compound 3.16 µM): < 5.00
pIC50 (second compound 10 µM): 7.50
Compound: COc1cc(C2c3cc4c(cc3C(OC3OC5COC(C)OC5C(O)C3O)C3COC(=O)C23)OCO4)cc(OC)c1O (stereo unspecified) + Cc1cnc(CNC(=O)c2c(=O)c3ccc(N4CCCN(C)CC4)nc3n3c2sc2ccccc23)cn1
viability, T/C [1]: 105%
viability, T/C [2]: 121%
viability, T/C [3]: 84.4%
viability, T/C [4]: 90.1%
viability, T/C [5]: 76.7%
viability, T/C [6]: 86.6%
viability, T/C [7]: 112%
viability, T/C [8]: 95.8%
viability, T/C [9]: 89%
viability, T/C [10]: 87.9%
viability, T/C [11]: 95.1%
viability, T/C [12]: 77.7%
viability, T/C [13]: 90%
viability, T/C [14]: 110%
viability, T/C [15]: 130%
viability, T/C [16]: 105%
viability, T/C [17]: 82.4%
viability, T/C [18]: 63.5%
viability, T/C [19]: 90.4%
viability, T/C [20]: 84.8%
viability, T/C [21]: 103%
viability, T/C [22]: 75.9%
viability, T/C [23]: 84.9%
viability, T/C [24]: 61.9%
viability, T/C [25]: 78.5%
viability, T/C [26]: 79.5%
viability, T/C [27]: 69.1%
viability, T/C [28]: 73%
viability, T/C [29]: 82.4%
viability, T/C [30]: 59.2%
viability, T/C [31]: 31%
viability, T/C [32]: 16.7%
viability, T/C [33]: 67.1%
viability, T/C [34]: 69.8%
viability, T/C [35]: 33.5%
viability, T/C [36]: 0.3%
